Data on 15 compounds can be found in patent US20190307776A1, “AZA-S[…] HUMAN IMMUNODEFICIENCY VIRUS REPLICATION” (priority 2016, published 2019).

The subject of this assay is recombinant NL4-3 virus. As to the kind of experiment: HIV cell culture assay. Type of assay: cell-based. To be noted: Human immunodeficiency virus 1, NL43, MT2. The procedure: HIV cell culture assay—MT-2 cells and 293T cells were obtained from the NIH AIDS Research and Reference Reagent Program. MT-2 cells were propagated in RPMI 1640 media supplemented with 10% heat inactivated fetal bovine serum, 100 […]. The 293T cells were propagated in DMEM media supplemented with 10% heat inactivated fetal bovine serum (FBS), 100 units/ml penicillin G and 100 μg/ml streptomycin. The proviral DNA clone of NL4-3 was obtained from the NIH AIDS Research and Reference Reagent Program. A recombinant NL4-3 virus, in which a section of the nef gene from NL4-3 was replaced with the Renilla luciferase gene, was used as a reference virus. In addition, residue Gag P373 was converted to P373S. Briefly, the recombinant virus was prepared by transfection of the altered proviral clone of NL4-3. Transfections were performed in 293T cells using LipofectAMINE PLUS from Invitrogen (Carlsbad, Calif.), according to manufacturer's instruction. The virus was titered in MT-2 cells using luciferase enzyme activity as a marker. Luciferase was quantitated using the Dual Luciferase kit from Promega (Madison, Wis.), with modifications to the manufacturer's protocol. The diluted Passive Lysis solution was pre-mixed with the re-suspended Luciferase Assay Reagent and the re-suspended Stop & Glo Substrate (2:1:1 ratio). Fifty (50) μL of the mixture was added to each aspirated well on assay plates and luciferase activity was measured immediately on a Wallac TriLux (Perkin-Elmer). Antiviral activities of inhibitors toward the recombinant virus were quantified by measuring luciferase activity in cells infected for 4-5 days with NLRluc recombinants in the presence serial dilutions of the inhibitor.
One may read the EC50 as the concentration that produces a half-maximal response. `C=C(C)[C@@H]1CC[C@]2(CNCCCN3CCS(=O)(=O)CC3)CC[C@]3(C)[C@H](CC[C@@H]4[C@@]5(C)CCN(c6c(O)c(=O)c6=O)C(C)(C)[C@@H]5CC[C@]43C)[C@@H]12` [Example 55, 3-((4aR,6aR,6bR,8aS,11R,11aR,11bR,13aR,13bR)-8a-(((3-(1,1-dioxidothiomorpholino)propyl)amino)methyl)-4,4,6a,6b,13b-pentamethyl-11-(prop-1-en-2-yl)hexadecahydro-1H-cyclopenta[5,6]naphtho[2,1-f]isoquinolin-3(2H,4H,13bH)-yl)-4-hydroxycyclobut-3-ene-1,2-dione]: the concentration giving a half-maximal response (EC50) was 250 nM.
Under `C=C(C)[C@@H]1CC[C@]2(CNCCCN3CCS(=O)(=O)CC3)CC[C@]3(C)[C@H](CC[C@@H]4[C@@]5(C)CCN(c6ncc(C(N)=O)cn6)C(C)(C)[C@@H]5CC[C@]43C)[C@@H]12` [Example 50, 2-((4aR,6aR,6bR,8aS,11R,11aR,11bR,13aR,13bR)-8a-(((3-(1,1-dioxidothiomorpholino)propyl)amino)methyl)-4,4,6a,6b,13b-pentamethyl-11-(prop-1-en-2-yl)hexadecahydro-1H-cyclopenta[5,6]naphtho[2,1-f]isoquinolin-3(2H,4H,13bH)-yl)pyrimidine-5-carboxamide] stands 60 nM.
For `C=C(C)[C@@H]1CC[C@]2(CO)CC[C@]3(C)[C@H](CC[C@@H]4[C@@]5(C)CCCN(C(=O)c6cccc(C(=O)O)c6)C(C)(C)C5CC[C@]43C)[C@@H]12` (stereo partly drawn) [Example 2, 3-((7aR,7bR,9aS,12R,12aR,12bR,14aR,14bR)-9a-(hydroxymethyl)-5,5,7a,7b,14b-pentamethyl-12-(prop-1-en-2-yl)docosahydrocyclopenta[7,8]phenanthro[2,1-c]azepine-4-carbonyl)benzoic acid], the EC50 was over 8000 nM.
As to `C=C(C)[C@@H]1CC[C@]2(CNCCCN3CCS(=O)(=O)CC3)CC[C@]3(C)[C@H](CC[C@@H]4[C@@]5(C)CCN(c6ccc(C(=O)O)cn6)C(C)(C)[C@@H]5CC[C@]43C)[C@@H]12` [Example 42, 6-((4aR,6aR,6bR,8aS,11R,11aR,11bR,13aR,13bR)-8a-(((3-(1,1-dioxidothiomorpholino)propyl)amino)methyl)-4,4,6a,6b,13b-pentamethyl-11-(prop-1-en-2-yl)hexadecahydro-1H-cyclopenta[5,6]naphtho[2,1-f]isoquinolin-3(2H,4H,13bH)-yl)nicotinic acid], the EC50 was 3 nM.
Under `C=C(C)[C@@H]1CC[C@]2(CO)CC[C@]3(C)[C@H](CC[C@@H]4[C@@]5(C)CCCN(S(=O)(=O)c6ccc(CC(=O)O)cc6)C(C)(C)C5CC[C@]43C)[C@@H]12` (stereo partly drawn) [Example 15, 2-(4-(((7aR,7bR,9aS,12R,12aR,12bR,14aR,14bR)-9a-(hydroxymethyl)-5,5,7a,7b,14b-pentamethyl-12-(prop-1-en-2-yl)icosahydrocyclopenta[7,8]phenanthro[2,1-c]azepin-4(1H)-yl)sulfonyl)phenyl)acetic acid] stands over 8000 nM; under `C=C(C)[C@@H]1CC[C@]2(CNCCCN3CCS(=O)(=O)CC3)CC[C@]3(C)[C@H](CC[C@@H]4[C@@]5(C)CCN(c6ncc(C(=O)O)cn6)C(C)(C)[C@@H]5CC[C@]43C)[C@@H]12` [Example 49, 2-((4aR,6aR,6bR,8aS,11R,11aR,11bR,13aR,13bR)-8a-(((3-(1,1-dioxidothiomorpholino)propyl)amino)methyl)-4,4,6a,6b,13b-pentamethyl-11-(prop-1-en-2-yl)hexadecahydro-1H-cyclopenta[5,6]naphtho[2,1-f]isoquinolin-3(2H,4H,13bH)-yl)pyrimidine-5-carboxylic acid], 0.7 nM; under `C=C(C)[C@@H]1CC[C@]2(CO)CC[C@]3(C)[C@H](CC[C@@H]4[C@@]5(C)CCN(S(=O)(=O)c6ccc(CC(=O)O)cc6)C(C)(C)C5CC[C@]43C)[C@@H]12` (stereo partly drawn) [Example 19, 2-(4-(((6aR,6bR,8aS,11R,11aR,11bR,13aR,13bR)-8a-(hydroxymethyl)-4,4,6a,6b,13b-pentamethyl-11-(prop-1-en-2-yl)icosahydro-3H-cyclopenta[5,6]naphtho[2,1-f]isoquinolin-3-yl)sulfonyl)phenyl)acetic acid], over 8000 nM.
The same measure for `C=C(C)[C@@H]1CC[C@]2(CNCCCN3CCS(=O)(=O)CC3)CC[C@]3(C)[C@H](CC[C@@H]4[C@@]5(C)CCN(c6ccc(C(=O)O)c(F)c6)C(C)(C)[C@@H]5CC[C@]43C)[C@@H]12` [Example 45, 4-((4aR,6aR,6bR,8aS,11R,11aR,11bR,13aR,13bR)-8a-(((3-(1,1-dioxidothiomorpholino)propyl)amino)methyl)-4,4,6a,6b,13b-pentamethyl-11-(prop-1-en-2-yl)icosahdro-3H-cyclopenta[5,6]naphtho[2,1-f]isoquinolin-3-yl)-2-fluorobenzoic acid]: 20 nM; for `C=C(C)[C@@H]1CC[C@]2(CNCCCN3CCS(=O)(=O)CC3)CC[C@]3(C)[C@H](CC[C@@H]4[C@@]5(C)CCN(c6ccc([N+](=O)[O-])cc6)C(C)(C)[C@@H]5CC[C@]43C)[C@@H]12` [Example 46, 4-(3-((((4aR,6aR,6bR,8aS,11R,11aR,11bR,13aR,13bR)-4,4,6a,6b,13b-pentamethyl-3-(4-nitrophenyl)-11-(prop-1-en-2-yl)icosahydro-1H-cyclopenta[5,6]naphtho[2,1-f]isoquinolin-8a-yl)methyl)amino)propyl)thiomorpholine 1,1-dioxide]: over 330 nM; for `C=C(C)[C@@H]1CC[C@]2(CO)CC[C@]3(C)[C@H](CC[C@@H]4[C@@]5(C)CCCN(S(=O)(=O)c6cccc(C(=O)O)c6)C(C)(C)C5CC[C@]43C)[C@@H]12` (stereo partly drawn) [Example 13, 3-(((7aR,7bR,9aS,12R,12aR,12bR,14aR,14bR)-9a-(hydroxymethyl)-5,5,7a,7b,14b-pentamethyl-12-(prop-1-en-2-yl)icosahydrocyclopenta[7,8]phenanthro[2,1-c]azepin-4(1H)-yl)sulfonyl)benzoic acid]: over 8000 nM.
The same measure for `C=C(C)[C@@H]1CC[C@]2(CNCCCN3CCS(=O)(=O)CC3)CC[C@]3(C)[C@H](CC[C@@H]4[C@@]5(C)CCN(C(=O)CC(C)(C)CC(=O)O)C(C)(C)[C@@H]5CC[C@]43C)[C@@H]12` [Example 24, 5-((4aR,6aR,6bR,8aS,11R,11aR,11bR,13aR,13bR)-8a-(((3-(1,1-dioxidothiomorpholino)propyl)amino)methyl)-4,4,6a,6b,13b-pentamethyl-11-(prop-1-en-2-yl)icosahydro-3H-cyclopenta[5,6]naphtho[2,1-f]isoquinolin-3-yl)-3,3-dimethyl-5-oxopentanoic acid]: 120 nM; for `C=C(C)[C@@H]1CC[C@]2(CO)CC[C@]3(C)[C@H](CC[C@@H]4[C@@]5(C)CCCN(S(=O)(=O)c6ccc(C(=O)O)cc6)C(C)(C)C5CC[C@]43C)[C@@H]12` (stereo partly drawn) [Example 14, 4-(((7aR,7bR,9aS,12R,12aR,12bR,14aR,14bR)-9a-(hydroxymethyl)-5,5,7a,7b,14b-pentamethyl-12-(prop-1-en-2-yl)icosahydrocyclopenta[7,8]phenanthro[2,1-c]azepin-4(1H)-yl)sulfonyl)benzoic acid]: 1700 nM.
For the compound `C=C(C)[C@@H]1CC[C@]2(CNCCCN3CCS(=O)(=O)CC3)CC[C@]3(C)[C@H](CC[C@@H]4[C@@]5(C)CCN(c6ccc(C#N)nc6)C(C)(C)[C@@H]5CC[C@]43C)[C@@H]12` [Example 43, 5-((4aR,6aR,6bR,8aS,11R,11aR,11bR,13aR,13bR)-8a-(((3-(1,1-dioxidothiomorpholino)propyl)amino)methyl)-4,4,6a,6b,13b-pentamethyl-11-(prop-1-en-2-yl)hexadecahydro-1H-cyclopenta[5,6]naphtho[2,1-f]isoquinolin-3(2H,4H,13bH)-yl)picolinonitrile], the EC50 worked out at 280 nM.
Under `C=C(C)[C@@H]1CC[C@]2(CNCCCN3CCS(=O)(=O)CC3)CC[C@]3(C)[C@H](CC[C@@H]4[C@@]5(C)CCN(c6ccc(C(=O)O)nc6)C(C)(C)[C@@H]5CC[C@]43C)[C@@H]12` [Example 44, 5-((4aR,6aR,6bR,8aS,11R,11aR,11bR,13aR,13bR)-8a-(((3-(1,1-dioxidothiomorpholino)propyl)amino)methyl)-4,4,6a,6b,13b-pentamethyl-11-(prop-1-en-2-yl)hexadecahydro-1H-cyclopenta[5,6]naphtho[2,1-f]isoquinolin-3(2H,4H,13bH)-yl)picolinic acid] stands 7 nM; under `C=C(C)[C@@H]1CC[C@]2(CO)CC[C@]3(C)[C@H](CC[C@@H]4[C@@]5(C)CCCN(C(=O)CC(=O)O)C(C)(C)C5CC[C@]43C)[C@@H]12` (stereo partly drawn) [Example 1, 3-((7aR,7bR,9aS,12R,12aR,12bR,14aR,14bR)-9a-(hydroxymethyl)-5,5,7a,7b,14b-pentamethyl-12-(prop-1-en-2-yl)icosahydrocyclopenta[7,8]phenanthro[2,1-c]azepin-4(1H)-yl)-3-oxopropanoic acid], 2310 nM.
